For experiment [1], the system named is NCI-H292 cells. Nature of the experiment: Cell viability assay (CellTiter-Glo), NCI-H292. The experiment is classed as cell-based. The following applies: Homo sapiens, 72 hrs, read-out: Cell Viability Assay: IC50 Determination NCI-H292. How it is done: Cell culture: HCTI 16, HT-29, and NCI-H292 cells were acquired from American Type Culture Collection (ATCC). HCT116 and HT-29 cells were maintained in ATCC-formulated McCoy's 5a Medium Modified supplemented with 10% fetal bovine serum, NCI-H292 cells were cultured in ATCC formulated RPMI-1640 supplemented with 10% fetal bovine serum. All cells were maintained at 37° C., 5% CO2.
Efficacy of exemplary compounds in inhibition of cell viability: HCT116 and HT-29 cells were plated at 4,000 cells per well and NCI-H292 cells were plated at 2,000 cells per well in their respective media in 384-well white, TC-treated plates (Corning). After 24 hours of incubation, the cells were treated with vehicle (DMSO) or test compounds (0.1% DMSO in final volume) for 72 hrs. The plate was equilibrated at room temperature for 10 mins followed by addition of a 1:1 volume of CellTiter-Glo® reagent (Promega). The contents were mixed for 2 mins on an orbital shaker to induce lysis. The plate was incubated at room temperature for 10 mins to stabilize luminescent signal before measuring luminescence on a Cytation5 microplate reader (Agilent). % inhibition as a function of compound concentration from 3 replicate wells was fit with a 4-parameter logistic curve using GraphPad Prism or CDD Vault to derive IC50 values.
In this table, for the BRAF ADP Glo kinase assay, “A” indicates IC50 of less than 5 nM; “B” indicates IC50 of between 5 nM to 50 nM; and “C” indicates IC50 of between 50 nM to 500 nM. “D” indicates IC50 of greater than 500 nM. For the BRAF-MEK TR-FRET assay, “A” indicates EC50 of less than 50 nM; “B” indicates EC50 of between 50 nM to 200 nM; and “C” indicates EC50 of between 200 nM to 1 μM. “D′” indicates EC50 of greater than 1 μM. For the AlphaLisa P-ERK assay, “A” indicates IC50 of less than 1 nM; “B” indicates IC50 of between 1 nM to 10 nM; and “C” indicates IC50 of between 10 nM to 100 nM. “D” indicates IC50 of greater than 100 nM. For the cell viability assay, “A” indicates IC50 of less than 1 nM; “B” indicates IC50 of between 1 nM to 10 nM; and “C” indicates IC50 of between 10 nM to 100 nM. “D” indicates IC50 of greater than 100 nM.

The test system of experiment [2] is BRAF-MEK1. Put plainly: BRAF-MEK TR-FRET assay, stabilization of MEK1 and BRAF interaction. The experiment is classed as binding. The following applies: 4 nM BRAF, 10 nM MEK, 100 μM ATP; 1 hr at 25° C.; read-out: BRAF-MEK TR-FRET Assay (EC50, fold stabilization). The procedure, abridged: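 His-MEK1 (full-length, E. coli) at 10 nM with GST-BRAF at 4 nM, 1 h at 25° C in pH 7.5 Tris buffer with 5 mM MgCl2 and 100 μM ATP; anti-His-Tb/anti-GST-XL665 added for 1 h more. 665/620 FRET ratio over DMSO gives fold stabilization; EC50 from 4-parameter fit, duplicate wells.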
Background: In TR-FRET formats the signal depends on donor and acceptor labels being close together.

Experiment [3] has as its target T1, MEK1 (Homo sapiens, UniProt Q02750).
T1 construct: purchased SignalChem M02-14H
Nature of the experiment: MEK1 kinase cascade assay (ADP-Glo), inhibition of MEK1 kinase activity. The experiment is classed as biochemical. The following applies: 25 nM BRAF, 6.25 nM MEK1, 0.5 μM ERK, 1 mM ATP; 20 min preincubation, 1 hr at 25° C.; read-out: BRAF ADP Glo kinase assay V3 (IC50). Put shortly: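 Compounds were preincubated 20 mins at 25° C with 25 nM BRAF(445-723) in 10 mM HEPES pH 7.5, 5 mM MgCl2, 2 mM CHAPS, 1 mM DTT, then 6.25 nM MEK1, 0.5 μM ERK1 and 1 mM ATP were added for 1 hr at 25° C, with 1% DMSO. ADP-Glo luminescence was normalized to DMSO and 1 μM Trametinib; IC50 came from 4-parameter fits of duplicates.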
For orientation: ADP-Glo turns the ADP formed in a reaction into a luminescent signal.

T1 sequence (Q02750 whole entry): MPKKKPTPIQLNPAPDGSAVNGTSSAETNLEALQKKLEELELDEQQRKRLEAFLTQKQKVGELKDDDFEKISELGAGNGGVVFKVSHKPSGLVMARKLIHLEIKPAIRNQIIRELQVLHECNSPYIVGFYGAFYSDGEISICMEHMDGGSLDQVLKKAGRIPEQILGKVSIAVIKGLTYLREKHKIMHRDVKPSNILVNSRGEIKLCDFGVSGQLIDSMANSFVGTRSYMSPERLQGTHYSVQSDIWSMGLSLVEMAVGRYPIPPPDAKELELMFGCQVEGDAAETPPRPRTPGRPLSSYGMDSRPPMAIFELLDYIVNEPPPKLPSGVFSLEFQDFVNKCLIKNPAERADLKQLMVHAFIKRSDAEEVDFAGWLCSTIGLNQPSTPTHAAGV
T1 sequence (P15056 445-723 partner limits assumed): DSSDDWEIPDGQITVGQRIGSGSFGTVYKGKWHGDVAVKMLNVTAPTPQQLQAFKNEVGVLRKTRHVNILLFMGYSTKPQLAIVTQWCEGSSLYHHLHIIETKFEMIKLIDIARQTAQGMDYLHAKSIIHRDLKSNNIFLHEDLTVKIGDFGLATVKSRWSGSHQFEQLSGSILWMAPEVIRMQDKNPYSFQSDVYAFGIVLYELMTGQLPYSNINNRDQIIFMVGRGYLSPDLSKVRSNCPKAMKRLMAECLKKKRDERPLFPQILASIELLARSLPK

Regarding `CNS(=O)(=O)Nc1cccc(CN2C(=O)Oc3c(ccc(OC(=O)N(C)C)c3F)[C@@H]2C)c1F` (single isomer, unassigned) [Compound 103, (S)-8-fluoro-3-(2-fluoro-3-((N-methylsulfamoyl)amino)benzyl)-4-methyl-2-oxo-3,4-dihydro-2H-benzo[e][1,3]oxazin-7-yl dimethylcarbamate or (R)-8-fluoro-3-(2-fluoro-3-((N-methylsulfamoyl)amino)benzyl)-4-methyl-2-oxo-3,4-dihydro-2H-benzo[e][1,3]oxazin-7-yl dimethylcarbamate], the IC50 (commonly the concentration that inhibits the measured activity by half) was 1 to 10 nM in experiment [1] and 5 to 50 nM in experiment [3]. Further, the EC50 in experiment [2] fell in the range of 200 to 1000 nM.

With `O=C1Oc2cc(Oc3ncco3)ccc2C2(CCC2)N1Cc1ccnc(NS(=O)(=O)C2CC2)c1F` [Compound 167, (cyclopropylsulfonyl)[3-fluoro-4-({7-(1,3-oxazol-2-yloxy)-2-oxo-2H,3H-spiro[1,3-benzoxazine-4,1′-cyclobutan]-3-yl}methyl)-2-pyridyl]amine], the IC50 in experiment [1] lay within 10 to 100 nM; in experiment [3], 5 to 50 nM. In experiment [2], the EC50 is 50 to 200 nM.

Turning to `CNS(=O)(=O)Nc1cccc(CN2C(=O)Oc3cc(Oc4ncco4)ccc3[C@@H]2C)c1F` (single isomer, unassigned) [Compound 78, (S)-3-({2-fluoro-3-(methylsulfamoyl)amino]phenyl}methyl)-4-methyl-7-(1,3-oxazol-2-yloxy)-3,4-dihydro-2H-1,3-benzoxazin-2-one or (R)-3-({2-fluoro-3-(methylsulfamoyl)amino]phenyl}methyl)-4-methyl-7-(1,3-oxazol-2-yloxy)-3,4-dihydro-2H-1,3-benzoxazin-2-one], the 50% inhibitory concentration (IC50) in experiment [1] was in the range of 10 to 100 nM; in experiment [3], 5 to 50 nM. Moreover, in experiment [2], the EC50 is 200 to 1000 nM.

Take `CNS(=O)(=O)Nc1cccc(CN2Cc3ccc(Oc4ncccn4)c(F)c3OC2=O)c1F` [Compound 123, 8-fluoro-3-{[2-fluoro-3-(methylaminosulfonylamino)phenyl]methyl}-7-(2-pyrimidinyloxy)-3,4-dihydro-2H-1,3-benzoxazin-2-one]: the IC50 was in the range of 10 to 100 nM in experiment [1] and 5 to 50 nM in experiment [3]. In addition, the EC50 in experiment [2] fell in the range of 200 to 1000 nM.

As to `[2H]C1([2H])c2ccc(Oc3cccnn3)cc2OC(=O)N1Cc1cccc(NS(=O)(=O)N(C)C)c1F` [Compound 39, 3-{[3-(dimethylaminosulfonylamino)-2-fluorophenyl]methyl}-7-(3-pyridazinyloxy)(4,4-^2H2)-3,4-dihydro-2H-1,3-benzoxazin-2-one], the IC50 was 1 to 10 nM in experiment [1] and 5 to 50 nM in experiment [3]. In addition, the EC50 in experiment [2] is under 50 nM.

In the case of `CN(C)C(=O)Oc1cc(F)c2c(c1)OC(=O)N(Cc1cccc(NS(=O)(=O)C3CC3)c1F)C2` [Compound 102, 3-(3-(cyclopropanesulfonamido)-2-fluorobenzyl)-5-fluoro-2-oxo-3,4-dihydro-2H-benzo[e][1,3]oxazin-7-yl dimethylcarbamate], the IC50 in experiment [1] is 1 to 10 nM; in experiment [3], 5 to 50 nM. Further, in experiment [2], the EC50 was in the range of 50 to 200 nM.

With `CNS(=O)(=O)Nc1nccc(CN2C(=O)Oc3cc(Oc4ncco4)cc(F)c3C23CCC3)c1F` [Compound 169, 5-fluoro-3-{[3-fluoro-2-(methylaminosulfonylamino)-4-pyridyl]methyl}-7-(1,3-oxazol-2-yloxy)-2H,3H-spiro[1,3-benzoxazine-4,1′-cyclobutan]-2-one], the figures for the IC50 in experiment [1] and in experiment [3] were 1 to 10 nM and 5 to 50 nM, respectively. The EC50 in experiment [2] is under 50 nM.

Consider `CNS(=O)(=O)Nc1nccc(CN2C(=O)Oc3cc(Oc4nccnn4)c(F)cc3C23CCC3)c1F` [Compound 166, 6-fluoro-3-{[3-fluoro-2-(methylaminosulfonylamino)-4-pyridyl]methyl}-7-(1,2,4-triazin-3-yloxy)-2H,3H-spiro[1,3-benzoxazine-4,1′-cyclobutan]-2-one], for which the results for the IC50 in experiment [1] and in experiment [3] were 1 to 10 nM and 5 to 50 nM, respectively. In addition, the EC50 in experiment [2] is under 50 nM.

As for `O=C1Oc2cc(Oc3ncco3)c(F)cc2C2(CCC2)N1Cc1ccnc(NS(=O)(=O)C2CC2)c1F` [Compound 170, (cyclopropylsulfonyl)[3-fluoro-4-({6-fluoro-7-(1,3-oxazol-2-yloxy)-2-oxo-2H,3H-spiro[1,3-benzoxazine-4,1′-cyclobutan]-3-yl}methyl)-2-pyridyl]amine], the results for the IC50 in experiment [1] and in experiment [3] were 10 to 100 nM and 5 to 50 nM, respectively. The EC50 in experiment [2] is 200 to 1000 nM.

As to `CN(C)C(=O)Oc1ccc2c(c1)OC(=O)N(Cc1cccc(NS(=O)(=O)C3CC3)c1F)C2` [Compound 125, 3-(3-(cyclopropanesulfonamido)-2-fluorobenzyl)-2-oxo-3,4-dihydro-2H-benzo[e][1,3]oxazin-7-yl dimethylcarbamate], the IC50 in experiment [1] fell in the range of 10 to 100 nM; in experiment [3], 5 to 50 nM. The EC50 in experiment [2] was 200 to 1000 nM.

Turning to `CNS(=O)(=O)Nc1cccc(CN2C(=O)Oc3cc(Oc4cccnn4)ccc3C2(C)C)c1F` [Compound 51, 3-({2-fluoro-3-[(methylsulfamoyl)amino]phenyl}methyl)-4,4-dimethyl-7-(pyridazine-3-yloxy)-3,4-dihydro-2H-1,3-benzoxazin-2-one], the concentration for half-maximal inhibition (IC50) is 10 to 100 nM in experiment [1] and 5 to 50 nM in experiment [3]. Also, in experiment [2], the EC50 is 200 to 1000 nM.

For `CNS(=O)(=O)Nc1cccc(CN2C(=O)Oc3cc(OC(=O)N(C)C)ccc3C23CCC3)c1F` [Compound 38, 3-({2-fluoro-3-[(methylsulfamoyl)amino]phenyl}methyl)-2-oxo-2,3-dihydrospiro[1,3-benzoxazine-4,1′-cyclobutan]-7-yl N,N-dimethylcarbamate], the half-maximal inhibitory concentration (IC50) in experiment [1] is under 1 nM; in experiment [3] it was under 5 nM. Further, the EC50 in experiment [2] is under 50 nM.

Regarding `CNS(=O)(=O)Nc1cccc(CN2Cc3cc(C)c(OC(=O)N(C)C)cc3OC2=O)c1F` [Compound 112, 3-(2-fluoro-3-((N-methylsulfamoyl)amino)benzyl)-6-methyl-2-oxo-3,4-dihydro-2H-benzo[e][1,3]oxazin-7-yl dimethylcarbamate], the IC50 in experiment [1] is 1 to 10 nM; in experiment [3], under 5 nM. The EC50 in experiment [2] is 200 to 1000 nM.

As to `CNS(=O)(=O)Nc1cccc(CN2C(=O)Oc3c(ccc(OC(=O)N(C)C)c3F)C23COC3)c1F` [Compound 77, 8-fluoro-3-({2-fluoro-3-(methylsulfamoyl)amino]phenyl}methyl)-2-oxo-2,3-dihydrospiro[1,3-benzoxazine-4,3′-oxetan]-7-yl N,N-dimethyl carbamate], the IC50 is under 1 nM in experiment [1] and 5 to 50 nM in experiment [3]. Moreover, the EC50 in experiment [2] lay within 50 to 200 nM.

`CNS(=O)(=O)Nc1cccc(CN2C(=O)Oc3cc(Oc4cccnn4)cc(F)c3[C@@H]2C)c1F` (single isomer, unassigned) [Compound 56]: the IC50 in experiment [1] is 10 to 100 nM; in experiment [3], 5 to 50 nM. Besides, the EC50 in experiment [2] was in the range of 200 to 1000 nM.

Values taken from patent publication US20260297105A1, “RAF-MEK PROTEIN COMPLEX MODULATORS AND METHODS OF USE THEREOF” (GANDEEVA THERAPEUTICS, INC., priority 2023, published 2026).
